Common to all, as to experiment: relative viability (nuclei count vs DMSO), 5 days (fraction); higher = more cells survive
Compound in the test “Carboplatin + Bortezomib”: C1CC(C1)(C(=O)O)C(=O)O.[NH2-].[NH2-].[Pt+2] [Carboplatin] + CC(C)C[C@H](NC(=O)[C@H](Cc1ccccc1)NC(=O)c1cnccn1)B(O)O [Bortezomib] (partner 0.002 µM)
A digest of the protocol: (§1)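 Lung cancer cell lines in 1536-well plates were dosed by pin tool the day after seeding, either with one drug alone or with a fixed anchor-drug dose plus five library-drug doses (not always all listed) in √10 steps. After 5 days, cells were fixed and their nuclei stained in one step (final 0.05% Triton X-100, 1% formaldehyde, 1 ug/ml Hoechst), then counted on 4× images. Relative viability is the nuclei count in treated wells divided by that in vehicle wells. Values are medians of duplicate plates.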

Compound in the test “Carboplatin + Foretinib”: C1CC(C1)(C(=O)O)C(=O)O.[NH2-].[NH2-].[Pt+2] [Carboplatin] + COc1cc2c(Oc3ccc(NC(=O)C4(C(=O)Nc5ccc(F)cc5)CC4)cc3F)ccnc2cc1OCCCN1CCOCC1 [Foretinib] (partner 0.25 µM)
A digest of the protocol: as §1

Compound in the test “GSK126 + Tozasertib”: CC[C@H](C)N1C=C(C2=C(C=C(C=C21)C3=CN=C(C=C3)N4CCNCC4)C(=O)NCC5=C(C=C(NC5=O)C)C)C [GSK126] + Cc1cc(Nc2cc(N3CCN(C)CC3)nc(Sc3ccc(NC(=O)C4CC4)cc3)n2)n[nH]1 [Tozasertib] (partner 0.1 µM)
The method in brief: as §1

Compound in the test “MLN4924 + Vorinostat”: NS(=O)(=O)OC[C@@H]1C[C@@H](n2ccc3c(N[C@H]4CCc5ccccc54)ncnc32)C[C@@H]1O [MLN4924] + O=C(CCCCCCC(=O)Nc1ccccc1)NO [Vorinostat] (partner 1 µM)
A digest of the protocol: as §1

Data on 4 cell lines can be found in the supplement of paper PMC10307832.

NCI-H460: the relative viability with Carboplatin + Bortezomib (first compound 0.08 µM) worked out at 1.22; with Carboplatin + Bortezomib (first compound 0.253 µM) it was 1.06; in the test with Carboplatin + Bortezomib (first compound 0.8 µM) it was 0.895; with Carboplatin + Bortezomib (first compound 2.53 µM) it was 0.812; with Carboplatin + Bortezomib (first compound 8 µM) it was 0.174; in the test with Carboplatin + Foretinib (first compound 0.08 µM) it was 0.98. The relative viability in the test with Carboplatin + Foretinib (first compound 0.253 µM) stood at 1.03; in the test with Carboplatin + Foretinib (first compound 0.8 µM), 0.968; with Carboplatin + Foretinib (first compound 2.53 µM), 0.716; with Carboplatin + Foretinib (first compound 8 µM), 0.322; with GSK126 + Tozasertib (first compound 0.08 µM), 0.419; in the test with GSK126 + Tozasertib (first compound 0.253 µM) it was 0.33. Further, the relative viability amounted to 0.574 with GSK126 + Tozasertib (first compound 0.8 µM); 0.352 in the test with GSK126 + Tozasertib (first compound 2.53 µM); 0.103 in the test with GSK126 + Tozasertib (first compound 8 µM); 0.679 with MLN4924 + Vorinostat (first compound 0.04 µM); 0.827 in the test with MLN4924 + Vorinostat (first compound 0.1265 µM); 0.797 with MLN4924 + Vorinostat (first compound 0.4 µM). Besides, the relative viability in the test with MLN4924 + Vorinostat (first compound 1.265 µM) came to 0.115; in the test with MLN4924 + Vorinostat (first compound 4 µM), 0.0271.
For the cell line NCI-H520, the relative viability came to 0.611 in the test with Carboplatin + Bortezomib (first compound 0.08 µM); 0.609 in the test with Carboplatin + Bortezomib (first compound 0.253 µM); 0.767 in the test with Carboplatin + Bortezomib (first compound 0.8 µM); 0.599 with Carboplatin + Bortezomib (first compound 2.53 µM); 0.523 with Carboplatin + Bortezomib (first compound 8 µM); 0.905 with Carboplatin + Foretinib (first compound 0.08 µM). Moreover, the relative viability with Carboplatin + Foretinib (first compound 0.253 µM) stood at 0.815; with Carboplatin + Foretinib (first compound 0.8 µM), 0.795; with Carboplatin + Foretinib (first compound 2.53 µM) it was 0.831; with Carboplatin + Foretinib (first compound 8 µM), 0.575; with GSK126 + Tozasertib (first compound 0.08 µM), 0.594; with GSK126 + Tozasertib (first compound 0.253 µM), 0.426. In addition, the relative viability with GSK126 + Tozasertib (first compound 0.8 µM) amounted to 0.48; in the test with GSK126 + Tozasertib (first compound 2.53 µM), 0.443; with GSK126 + Tozasertib (first compound 8 µM), 0.352; in the test with MLN4924 + Vorinostat (first compound 0.04 µM), 0.499; in the test with MLN4924 + Vorinostat (first compound 0.1265 µM), 0.499; with MLN4924 + Vorinostat (first compound 0.4 µM), 0.321. Further, the relative viability with MLN4924 + Vorinostat (first compound 1.265 µM) was 0.177; with MLN4924 + Vorinostat (first compound 4 µM) it was 0.223.
For the cell line NCI-H596, the relative viability is 1.21 with Carboplatin + Bortezomib (first compound 0.08 µM); 1.27 with Carboplatin + Bortezomib (first compound 0.253 µM); 0.989 with Carboplatin + Bortezomib (first compound 0.8 µM); 0.886 in the test with Carboplatin + Bortezomib (first compound 2.53 µM); 0.73 with Carboplatin + Bortezomib (first compound 8 µM); 0.828 with Carboplatin + Foretinib (first compound 0.08 µM). Moreover, the relative viability with Carboplatin + Foretinib (first compound 0.253 µM) worked out at 1.01; with Carboplatin + Foretinib (first compound 0.8 µM), 0.707; in the test with Carboplatin + Foretinib (first compound 2.53 µM), 0.59; in the test with Carboplatin + Foretinib (first compound 8 µM) it was 0.431; in the test with GSK126 + Tozasertib (first compound 0.08 µM), 0.933; with GSK126 + Tozasertib (first compound 0.253 µM), 1.03. For the same cell line, the relative viability came out at 0.894 with GSK126 + Tozasertib (first compound 0.8 µM); 0.89 in the test with GSK126 + Tozasertib (first compound 2.53 µM); 0.933 with GSK126 + Tozasertib (first compound 8 µM); 0.471 with MLN4924 + Vorinostat (first compound 0.04 µM); 0.597 with MLN4924 + Vorinostat (first compound 0.1265 µM); 0.601 in the test with MLN4924 + Vorinostat (first compound 0.4 µM). In addition, the relative viability with MLN4924 + Vorinostat (first compound 1.265 µM) came to 0.382; with MLN4924 + Vorinostat (first compound 4 µM), 0.418.
Regarding NCI-H647, the relative viability in the test with Carboplatin + Bortezomib (first compound 0.08 µM) was determined as 1.03; in the test with Carboplatin + Bortezomib (first compound 0.253 µM), 1.24; with Carboplatin + Bortezomib (first compound 0.8 µM), 0.952; with Carboplatin + Bortezomib (first compound 2.53 µM) it was 1.07; with Carboplatin + Bortezomib (first compound 8 µM) it was 0.686; in the test with Carboplatin + Foretinib (first compound 0.08 µM), 1.15. Besides, the relative viability with Carboplatin + Foretinib (first compound 0.253 µM) was found to be 1.24; in the test with Carboplatin + Foretinib (first compound 0.8 µM), 1.13; with Carboplatin + Foretinib (first compound 2.53 µM), 1.17; with Carboplatin + Foretinib (first compound 8 µM), 0.84; in the test with GSK126 + Tozasertib (first compound 0.08 µM), 0.375; with GSK126 + Tozasertib (first compound 0.253 µM) it was 0.268. In addition, the relative viability in the test with GSK126 + Tozasertib (first compound 0.8 µM) came out at 0.288; with GSK126 + Tozasertib (first compound 2.53 µM), 0.282; with GSK126 + Tozasertib (first compound 8 µM), 0.126; in the test with MLN4924 + Vorinostat (first compound 0.04 µM) it was 0.414; with MLN4924 + Vorinostat (first compound 0.1265 µM) it was 0.391; with MLN4924 + Vorinostat (first compound 0.4 µM), 0.0893. Besides, the relative viability with MLN4924 + Vorinostat (first compound 1.265 µM) came to 0.0464; with MLN4924 + Vorinostat (first compound 4 µM), 0.0578.
